Data set [1] relates to N9. The data set is described as follows: Cytotoxicity against LPS-induced mouse N9 cells assessed as decrease in cell viability at 1 to 100 ug/ml after 24 hrs by MTT assay. In kind it is cell-based. As to conditions: n9, 24 h. On the technique in general: Tetrazolium assays rely on reduction of a dye to a coloured formazan, in cell work by metabolically active cells.
The subject of data set [2] is N9. The data set is described as follows: Antineuroinflammatory activity in mouse N9 cells assessed as inhibition of LPS-induced nitric oxide production after 24 hrs by Griess assay. In kind it is functional, cell-based.

Data on 17 compounds can be found in ChEMBL document CHEMBL4000231, “Natural potential neuroinflammatory inhibitors from Alhagi sparsifolia Shap” (Bioorg Med Chem Lett, 2017).

On to `COc1ccc(CO)cc1O`, for which the Activity result with N9 [1] was “Non-Toxic”. Further, in the data set with N9 [2], the inhibition result is “Dose-dependent effect”.

Consider `COc1cc(OC)cc([C@@H]2OC[C@H]3[C@@H]2CO[C@H]3c2ccc(O)c(OC)c2)c1`, for which the Activity result in the data set with N9 [1] is on record as “Non-Toxic”. The inhibition result in the data set on N9 [2] was “Dose-dependent effect”.

Regarding `CC1=CC(C)(C)[C@@H](C)C1`, the Activity result in the data set on N9 [1] was “Non-Toxic”. Moreover, in the data set with N9 [2], the inhibition result is “Dose-dependent effect”.

With `C=Cc1ccc(O)cc1OC`, the Activity result with N9 [1] is reported as “Non-Toxic”. The inhibition result in the data set on N9 [2] is “Dose-dependent effect”.

For `C[C@@H]1O[C@@H](OC[C@H]2O[C@@H](Oc3c(-c4ccc(O)c(O)c4)oc4cc(O)cc(O)c4c3=O)[C@H](O[C@@H]3O[C@@H](C)[C@H](O)[C@@H](O)[C@H]3O)[C@@H](O)[C@@H]2O)[C@H](O)[C@H](O)[C@H]1O`, the Activity result in the data set on N9 [1] is “Non-Toxic”. Also, the inhibition result in the data set on N9 [2] was “Dose-dependent effect”.

Take `COc1ccc(-c2coc3c(OC)c(O)ccc3c2=O)cc1O`: in the data set with N9 [1], the Activity result is “Non-Toxic”. The inhibition entry in the data set with N9 [2] is “Dose-dependent effect”.

For `O=C(N[C@@H](Cc1ccccc1)C(=O)N[C@H](CO)Cc1ccccc1)c1ccccc1`, in the data set on N9 [1], the Activity entry was “Non-Toxic”. For the same compound, in the data set with N9 [2], the inhibition entry was “Dose-dependent effect”.

For the compound `CC1=CC(=O)CC(C)(C)[C@@]1(O)/C=C/C(C)=C\C(=O)O` [(+)-ABSCISIC ACID], in the data set on N9 [1], the Activity result was “Non-Toxic”. Further, in the data set on N9 [2], the inhibition result is “Dose-dependent effect”.

Turning to `COc1cc([C@@H]2OC[C@@H]3[C@H]2CO[C@H]3c2ccc(O)c(OC)c2)ccc1O` [(+)-PINORESINOL], the Activity result in the data set with N9 [1] is given as “Non-Toxic”. For the same compound, the inhibition result in the data set with N9 [2] is “Dose-dependent effect”.

Regarding `COc1cc([C@@H]2OC[C@@H]3[C@H]2CO[C@H]3c2cc(OC)c(O[C@@H]3O[C@H](CO)[C@@H](O)[C@H](O)[C@H]3O)c(OC)c2)cc(OC)c1O` [ACANTHOSIDE B], the Activity entry in the data set with N9 [1] is “Non-Toxic”. In addition, in the data set on N9 [2], the inhibition entry is “Dose-dependent effect”.

As for `CC1=CC(=O)CC(C)(C)[C@@]1(O)/C=C/[C@@H](C)O` [BLUMENOL A], the Activity entry in the data set with N9 [1] is “Non-Toxic”. Besides, the inhibition result in the data set on N9 [2] is “Dose-dependent effect”.

Take `COc1ccc(-c2coc3cc(O)ccc3c2=O)cc1O` [CALYCOSIN]: in the data set on N9 [1], the Activity result was “Non-Toxic”. For the same compound, in the data set on N9 [2], the inhibition result was “Dose-dependent effect”.

As for `O=c1c(O[C@@H]2O[C@H](CO)[C@@H](O)[C@H](O)[C@H]2O)c(-c2ccc(O)c(O)c2)oc2cc(O)cc(O)c12` [ISOQUERCETIN], the Activity entry with N9 [1] is given as “Non-Toxic”. For the same compound, the inhibition entry in the data set on N9 [2] was “Dose-dependent effect”.

With `COc1cc(-c2oc3cc(O)cc(O)c3c(=O)c2O)ccc1O` [ISORHAMNETIN], the Activity result with N9 [1] is reported as “Non-Toxic”. The inhibition result in the data set with N9 [2] is “Dose-dependent effect”.

Take `COc1ccc(-c2coc3cc(O)c(OC)cc3c2=O)cc1O` [ODORATIN]: the Activity result in the data set with N9 [1] was “Non-Toxic”. Further, the inhibition result in the data set with N9 [2] is “Dose-dependent effect”.

Turning to `O=c1c(O)c(-c2ccc(O)c(O)c2)oc2cc(O)cc(O)c12` [QUERCETIN], the Activity result in the data set with N9 [1] was “Non-Toxic”. Also, the inhibition result in the data set with N9 [2] is “Dose-dependent effect”.

In the case of `COc1cc([C@H]2OC[C@H]3[C@@H]2CO[C@@H]3c2cc(OC)c(O)c(OC)c2)cc(OC)c1O` [SYRINGARESINOL], in the data set on N9 [1], the Activity result is reported as “Non-Toxic”. Further, in the data set with N9 [2], the inhibition result was “Dose-dependent effect”.
